As usually defined, the Ki is a measure of affinity in units of concentration, obtained from inhibition or displacement.

For this assay, the target named is Tyrosine-protein kinase BTK (Homo sapiens, UniProt Q06187). The assay is described as follows: Biochemical Btk Assay: A generalized procedure for a standard biochemical Btk, Kinase Assay that can be used to test Formula I compounds is as follows. A master mix minus Btk enzyme is prepared containing 1x Cell Signaling kinase buffer (25 mM Tris-HCl, pH 7.5, 5 mM beta-glycerophosphate, 2 mM dithiothreitol, 0.1 mM Na3VO4, 10 mM MgCl2), 0.5 uM Promega PTK Biotinylated peptide substrate 2, and 0.01% BSA. A master mix plus Btk enzyme is prepared containing 1x Cell Signaling kinase buffer, 0.5 uM PTK Biotinylated peptide substrate 2, 0.01% BSA, and 100 ng/well (0.06 mU/well) Btk enzyme. Btk enzyme is prepared as follows: full length human wildtype Btk (accession number NM-000061) with a C-terminal V5 and 6xHis tag was subcloned into pFastBac vector (Invitrogen/Life Technologies) for making baculovirus carrying this epitope-tagged Btk.
Chain of Tyrosine-protein kinase BTK (Q06187 whole entry): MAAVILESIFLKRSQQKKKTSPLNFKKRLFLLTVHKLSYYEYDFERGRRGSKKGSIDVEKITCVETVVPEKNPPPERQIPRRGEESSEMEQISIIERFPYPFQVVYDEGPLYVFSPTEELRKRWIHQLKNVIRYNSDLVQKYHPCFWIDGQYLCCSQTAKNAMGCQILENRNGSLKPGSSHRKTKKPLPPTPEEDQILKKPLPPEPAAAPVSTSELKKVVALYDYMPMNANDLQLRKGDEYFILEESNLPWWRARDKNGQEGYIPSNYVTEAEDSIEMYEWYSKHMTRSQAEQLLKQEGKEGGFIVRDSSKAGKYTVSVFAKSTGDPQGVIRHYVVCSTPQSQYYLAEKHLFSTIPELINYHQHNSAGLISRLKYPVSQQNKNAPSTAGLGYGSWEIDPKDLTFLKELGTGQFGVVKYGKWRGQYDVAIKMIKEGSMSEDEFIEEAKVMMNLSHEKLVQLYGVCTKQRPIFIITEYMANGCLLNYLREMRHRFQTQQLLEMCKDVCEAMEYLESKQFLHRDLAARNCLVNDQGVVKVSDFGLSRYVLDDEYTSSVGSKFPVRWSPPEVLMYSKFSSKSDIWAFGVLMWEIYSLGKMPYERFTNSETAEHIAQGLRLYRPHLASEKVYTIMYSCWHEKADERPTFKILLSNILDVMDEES
Consider `CC#CC(=O)NCCOc1cccc(Nc2cc(-c3ccnc(N4CCn5c(cc6c5CC(C)(C)C6)C4=O)c3CO)cn(C)c2=O)n1`, for which the Ki is 2.37 nM.
As to `C=C(C#N)C(=O)NCCOc1cccc(Nc2cc(-c3ccnc(N4CCn5c(cc6c5CC(C)(C)C6)C4=O)c3CO)cn(C)c2=O)n1`, the inhibition constant (Ki) is 1.7 nM.
To `C=CC(=O)NCCN(C)c1cccc(Nc2cc(-c3ccnc(N4CCn5c(cc6c5CC(C)(C)C6)C4=O)c3CO)cn(C)c2=O)n1` belongs 0.683 nM; to `C=CC(=O)N[C@H]1CCCN(c2cccc(Nc3cc(-c4ccnc(N5CCn6c(cc7c6CC(C)(C)C7)C5=O)c4CO)cn(C)c3=O)n2)C1`, 0.888 nM; to `C=CC(=O)NCCNc1cccc(Nc2cc(-c3ccnc(N4CCn5c(cc6c5CC(C)(C)C6)C4=O)c3CO)cn(C)c2=O)n1`, 4.33 nM.

Source of the values: ChEMBL document CHEMBL3886524, “Heteroaryl pyridone and aza-pyridone compounds with electrophilic functionality” (2016).
